Measurements reported in ChEMBL document CHEMBL1201862, “PubChem BioAssay data set” (2004).
Active and inactive are the calls of the source.

Key:
[1] = non-specific 3'UTR reporter inhibition in Clone20-Shn3RL – cell-based, Renilla luciferase, cherry-picked, counter-screen for Shn3 inhibitor project, dose response (AID 624133); type: functional
[2] = HEK-293T viability loss after treatment – luminescence, T-cell screen hits, cytotoxicity control for TCR NF-kB inhibitor project, dose response (AID 489026); type: functional, cell-based;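 further: cells exposed to compound about 14 hours before the viability readout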
[3] = reduction of Shn3 3'UTR-driven luciferase in osteoblasts – cell-based, Clone20 osteoblasts, firefly luciferase, cherry-picked, dose response (AID 624132); type: functional;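 further: firefly luciferase luminescence from reporter carrying the Shn3 3'UTR in osteoblasts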
[4] = loss of viability in HepG2 cells – cell-based, CellTiter-Glo, cherry-picked, cytotoxicity control for Shn3 inhibitor project, dose response (AID 624134); type: functional
INS1 = assay: INS-1E survival protection against cytokine death – cell-based, luminescence, retest, dose response (AID 449756); type: functional; conditions: Rattus norvegicus;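 further: cell death triggered by IL-1 beta plus TNF-alpha plus IFN-gamma mixture; protective hits raise ATP signal compared with cytokine alone wells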
cells [5] = type: functional
fMet-Leu-Phe receptor = biological target: T1, fMet-Leu-Phe receptor (Homo sapiens, UniProt P21462); assay: formyl peptide receptor binders – dose response (AID 519); type: functional
T1 sequence (P21462 whole entry): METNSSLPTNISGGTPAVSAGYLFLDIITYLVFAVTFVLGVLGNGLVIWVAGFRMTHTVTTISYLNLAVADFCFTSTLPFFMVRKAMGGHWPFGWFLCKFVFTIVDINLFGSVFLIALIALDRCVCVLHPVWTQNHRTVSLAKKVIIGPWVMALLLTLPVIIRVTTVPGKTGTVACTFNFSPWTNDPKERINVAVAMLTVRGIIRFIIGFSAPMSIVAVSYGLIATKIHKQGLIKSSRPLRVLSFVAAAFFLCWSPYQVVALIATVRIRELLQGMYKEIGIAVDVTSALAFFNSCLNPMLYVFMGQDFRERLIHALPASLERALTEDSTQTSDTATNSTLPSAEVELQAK

[6] = P. falciparum Dd2 growth inhibitors, dose response, SYBR Green, cherry-picked samples (AID 1159567); type: functional, cell-based
Fatty acid synthase = Fatty acid synthase (Homo sapiens, UniProt P49327); assay: inhibition of human FAS-TE enzyme activity – biochemical, kinetic fluorescence intensity, dose response (AID 624326); type: functional;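 further: rate of fluorescence rise from hydrolysis of a fluorogenic O-methyl fluorescein ester substrate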
[7] = biological target: T2, Short transient receptor potential channel 4 (Mus musculus, UniProt Q9QUQ5); assay: block of DAMGO-driven TRPC4 calcium entry – cell-based, HEK293 TRPC4/mu-opioid, Fluo-4 calcium, dose response (AID 434942); type: functional;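 further: potency of inhibitors blocking the TRPC4 calcium response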
T2 sequence (Q9QUQ5 whole entry): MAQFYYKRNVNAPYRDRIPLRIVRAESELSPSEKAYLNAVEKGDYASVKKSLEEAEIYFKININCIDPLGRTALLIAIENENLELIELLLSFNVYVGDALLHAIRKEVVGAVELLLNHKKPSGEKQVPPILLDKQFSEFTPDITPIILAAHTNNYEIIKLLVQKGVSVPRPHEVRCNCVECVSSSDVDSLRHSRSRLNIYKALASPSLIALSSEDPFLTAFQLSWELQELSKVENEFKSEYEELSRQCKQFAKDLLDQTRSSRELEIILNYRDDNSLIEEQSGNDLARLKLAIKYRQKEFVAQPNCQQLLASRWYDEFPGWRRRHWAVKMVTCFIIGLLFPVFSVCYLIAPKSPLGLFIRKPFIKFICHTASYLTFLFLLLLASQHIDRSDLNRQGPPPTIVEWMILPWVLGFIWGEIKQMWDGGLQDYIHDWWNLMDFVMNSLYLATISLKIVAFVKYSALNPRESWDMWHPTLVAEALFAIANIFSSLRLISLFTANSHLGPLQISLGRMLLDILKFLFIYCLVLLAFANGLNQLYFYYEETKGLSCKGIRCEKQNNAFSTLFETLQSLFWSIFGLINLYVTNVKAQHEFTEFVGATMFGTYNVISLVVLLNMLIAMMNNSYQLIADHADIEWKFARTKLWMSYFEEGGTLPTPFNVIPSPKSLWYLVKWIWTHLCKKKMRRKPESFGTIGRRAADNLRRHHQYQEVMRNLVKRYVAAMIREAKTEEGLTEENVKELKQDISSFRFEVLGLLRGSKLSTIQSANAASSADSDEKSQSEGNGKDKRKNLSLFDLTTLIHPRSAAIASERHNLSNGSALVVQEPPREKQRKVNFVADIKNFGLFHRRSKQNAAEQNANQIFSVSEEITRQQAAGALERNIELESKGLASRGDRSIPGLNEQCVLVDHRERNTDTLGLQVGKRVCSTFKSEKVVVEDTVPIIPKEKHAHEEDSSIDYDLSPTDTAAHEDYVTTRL

[8] = biological target: T3, Voltage-gated N-type calcium channel alpha-1B subunit/Amyloid beta A4 precursor protein-binding family A member 1 (Homo sapiens, UniProt Q00975+Q02410); type: protein assay
[9] = biological target: T3, Voltage-gated N-type calcium channel alpha-1B subunit/Amyloid beta A4 precursor protein-binding family A member 1; type: protein assay; remark: listed apart in the source
Large T antigen = Large T antigen (Simian virus 40, UniProt P03070); type: functional, Betapolyomavirus macacae;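 further: Confirmatory-stage PubChem screen for compounds that inhibit SV40 T antigen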
[10] = biological target: Induced myeloid leukemia cell differentiation protein Mcl-1 (Homo sapiens, UniProt Q07820); type: functional
cells [11] = type: functional, cell-based
[12] = tested on: Streptococcus sp. 'group A'; assay: Streptococcus pyogenes SK(-)GAS viability under kanamycin – luminescence, BacTiterGlo, confirmation, counter-screen for streptokinase expression inhibitor project, dose response (AID 1900); type: functional, organism-based
[13] = luciferase reporter signal suppression in cells – H4 neuroglioma cells, luminescence, dose response (AID 1990); type: functional, cell-based
cells [14] = type: functional, cell-based; remark: listed apart in the source
[15] = Luminescence Cell-Based Dose Response HTS to Identify Inhibitors of 5'UTR Stem-Loop Driven Prion Protein mRNA Translation in H4 Neuroglioblastoma Cells. [Related pubchem assays: 1827 (Project Summary), 1813 (Primary HTS)]; type: functional
[16] = alpha-synuclein stem-loop luciferase translation blockers – H4 neuroglioma cells, luminescence, confirmation (AID 1988); type: functional, cell-based
Streptococcus = assay: GAS UMAA2166 growth inhibition – luminescence, BacTiterGlo, counter-screen for streptokinase expression inhibitor project, dose response (AID 1915); type: functional, organism-based;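 further: potency for reduction of bacterial viability or growth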
[17] = intracellular Trypanosoma cruzi inhibitors in host cells – cell-based, plate reader, cherry-pick samples, set 3, dose response (AID 651818); type: functional;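 further: compounds incubated with infected cells for about four days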
P388 = assay: cells; type: functional; conditions: Mus musculus
SN12K1 = assay: cells; type: functional; conditions: Homo sapiens
P388/ADR = assay: cells; type: functional; conditions: Mus musculus
[18] = biological target: T4, Heat shock factor protein 1 (Mus musculus, UniProt P38532); assay: decrease of HSF1-responsive luciferase luminescence – cell-based, NIH3T3, dose retest, confirmation (AID 2382); type: functional;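 further: NIH3T3 fibroblasts with HSF1-driven luciferase reporter stressed by proteasome inhibitor MG132; luminescence from HSF1-driven luciferase expression after 8 hours of MG132 stress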
T4 sequence (P38532 whole entry): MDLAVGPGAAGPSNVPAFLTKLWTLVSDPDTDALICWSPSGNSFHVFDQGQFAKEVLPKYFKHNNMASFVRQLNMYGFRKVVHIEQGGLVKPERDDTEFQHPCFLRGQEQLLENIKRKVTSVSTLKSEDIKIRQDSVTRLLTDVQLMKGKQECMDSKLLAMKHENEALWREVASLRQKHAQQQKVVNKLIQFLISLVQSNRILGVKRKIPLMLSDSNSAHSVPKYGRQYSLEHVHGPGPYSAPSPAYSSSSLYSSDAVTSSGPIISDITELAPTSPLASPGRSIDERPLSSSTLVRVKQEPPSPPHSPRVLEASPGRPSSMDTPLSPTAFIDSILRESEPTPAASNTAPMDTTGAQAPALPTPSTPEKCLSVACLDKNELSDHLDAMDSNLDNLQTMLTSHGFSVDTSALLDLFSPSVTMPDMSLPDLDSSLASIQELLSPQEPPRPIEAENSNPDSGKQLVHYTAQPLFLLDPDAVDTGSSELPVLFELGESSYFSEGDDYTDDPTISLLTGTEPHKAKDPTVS

T3 sequence (Q00975 whole entry): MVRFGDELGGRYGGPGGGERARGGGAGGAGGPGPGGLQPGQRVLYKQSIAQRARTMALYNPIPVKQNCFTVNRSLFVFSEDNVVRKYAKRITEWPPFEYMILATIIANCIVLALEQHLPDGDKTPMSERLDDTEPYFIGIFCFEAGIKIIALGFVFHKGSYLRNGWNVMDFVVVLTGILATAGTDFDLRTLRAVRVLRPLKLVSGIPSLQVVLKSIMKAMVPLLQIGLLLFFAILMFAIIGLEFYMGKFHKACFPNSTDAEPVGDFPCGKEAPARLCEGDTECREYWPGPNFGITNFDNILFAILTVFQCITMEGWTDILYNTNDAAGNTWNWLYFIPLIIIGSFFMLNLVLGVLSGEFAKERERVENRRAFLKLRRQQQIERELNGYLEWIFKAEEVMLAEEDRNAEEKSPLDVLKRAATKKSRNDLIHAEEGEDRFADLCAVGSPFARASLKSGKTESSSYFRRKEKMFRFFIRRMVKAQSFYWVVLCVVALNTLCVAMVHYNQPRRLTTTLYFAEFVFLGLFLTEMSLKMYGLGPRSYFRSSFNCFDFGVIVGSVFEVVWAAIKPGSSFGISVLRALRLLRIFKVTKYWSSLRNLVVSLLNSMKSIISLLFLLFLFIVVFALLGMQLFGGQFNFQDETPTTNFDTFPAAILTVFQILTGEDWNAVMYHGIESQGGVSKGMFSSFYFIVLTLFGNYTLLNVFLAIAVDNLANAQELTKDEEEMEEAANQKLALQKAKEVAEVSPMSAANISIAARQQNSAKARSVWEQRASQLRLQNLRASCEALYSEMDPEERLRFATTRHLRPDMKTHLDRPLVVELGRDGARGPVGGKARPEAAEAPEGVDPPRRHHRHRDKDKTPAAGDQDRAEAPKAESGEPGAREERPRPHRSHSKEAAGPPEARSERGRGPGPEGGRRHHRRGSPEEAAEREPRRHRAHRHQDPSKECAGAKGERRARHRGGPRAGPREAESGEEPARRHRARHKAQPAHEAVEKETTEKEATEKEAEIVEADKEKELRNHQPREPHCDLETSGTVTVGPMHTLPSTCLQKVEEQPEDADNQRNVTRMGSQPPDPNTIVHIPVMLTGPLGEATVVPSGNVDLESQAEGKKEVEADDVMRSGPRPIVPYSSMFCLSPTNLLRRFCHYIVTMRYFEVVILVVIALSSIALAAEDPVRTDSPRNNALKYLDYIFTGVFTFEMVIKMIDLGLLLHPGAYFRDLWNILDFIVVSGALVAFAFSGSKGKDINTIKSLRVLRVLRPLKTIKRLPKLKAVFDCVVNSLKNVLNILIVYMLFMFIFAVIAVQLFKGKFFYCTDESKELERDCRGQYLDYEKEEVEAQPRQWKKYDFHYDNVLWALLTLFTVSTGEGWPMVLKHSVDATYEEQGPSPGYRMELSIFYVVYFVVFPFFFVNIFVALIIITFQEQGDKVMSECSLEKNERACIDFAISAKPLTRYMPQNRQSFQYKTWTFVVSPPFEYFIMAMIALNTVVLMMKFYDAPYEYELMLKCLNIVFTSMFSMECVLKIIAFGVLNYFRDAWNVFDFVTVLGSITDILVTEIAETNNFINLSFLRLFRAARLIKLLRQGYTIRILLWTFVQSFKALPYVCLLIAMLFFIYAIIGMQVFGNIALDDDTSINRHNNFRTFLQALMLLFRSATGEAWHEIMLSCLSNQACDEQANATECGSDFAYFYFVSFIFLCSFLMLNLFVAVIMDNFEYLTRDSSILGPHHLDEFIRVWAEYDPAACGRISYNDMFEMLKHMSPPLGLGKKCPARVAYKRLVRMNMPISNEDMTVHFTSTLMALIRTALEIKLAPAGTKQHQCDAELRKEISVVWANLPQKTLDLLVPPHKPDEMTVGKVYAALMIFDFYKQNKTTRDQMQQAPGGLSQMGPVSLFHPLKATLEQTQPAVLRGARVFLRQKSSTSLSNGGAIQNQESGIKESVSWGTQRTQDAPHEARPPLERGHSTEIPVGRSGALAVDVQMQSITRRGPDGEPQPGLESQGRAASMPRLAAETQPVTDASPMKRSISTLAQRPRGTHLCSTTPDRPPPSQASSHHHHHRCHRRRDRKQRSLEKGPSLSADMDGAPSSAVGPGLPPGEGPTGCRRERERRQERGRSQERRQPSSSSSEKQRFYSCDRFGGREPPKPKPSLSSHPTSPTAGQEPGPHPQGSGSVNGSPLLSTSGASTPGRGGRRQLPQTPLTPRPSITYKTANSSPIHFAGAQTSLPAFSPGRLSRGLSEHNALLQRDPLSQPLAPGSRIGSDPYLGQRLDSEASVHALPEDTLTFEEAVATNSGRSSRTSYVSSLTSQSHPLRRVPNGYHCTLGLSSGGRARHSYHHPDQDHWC
T3 sequence (Q02410 whole entry): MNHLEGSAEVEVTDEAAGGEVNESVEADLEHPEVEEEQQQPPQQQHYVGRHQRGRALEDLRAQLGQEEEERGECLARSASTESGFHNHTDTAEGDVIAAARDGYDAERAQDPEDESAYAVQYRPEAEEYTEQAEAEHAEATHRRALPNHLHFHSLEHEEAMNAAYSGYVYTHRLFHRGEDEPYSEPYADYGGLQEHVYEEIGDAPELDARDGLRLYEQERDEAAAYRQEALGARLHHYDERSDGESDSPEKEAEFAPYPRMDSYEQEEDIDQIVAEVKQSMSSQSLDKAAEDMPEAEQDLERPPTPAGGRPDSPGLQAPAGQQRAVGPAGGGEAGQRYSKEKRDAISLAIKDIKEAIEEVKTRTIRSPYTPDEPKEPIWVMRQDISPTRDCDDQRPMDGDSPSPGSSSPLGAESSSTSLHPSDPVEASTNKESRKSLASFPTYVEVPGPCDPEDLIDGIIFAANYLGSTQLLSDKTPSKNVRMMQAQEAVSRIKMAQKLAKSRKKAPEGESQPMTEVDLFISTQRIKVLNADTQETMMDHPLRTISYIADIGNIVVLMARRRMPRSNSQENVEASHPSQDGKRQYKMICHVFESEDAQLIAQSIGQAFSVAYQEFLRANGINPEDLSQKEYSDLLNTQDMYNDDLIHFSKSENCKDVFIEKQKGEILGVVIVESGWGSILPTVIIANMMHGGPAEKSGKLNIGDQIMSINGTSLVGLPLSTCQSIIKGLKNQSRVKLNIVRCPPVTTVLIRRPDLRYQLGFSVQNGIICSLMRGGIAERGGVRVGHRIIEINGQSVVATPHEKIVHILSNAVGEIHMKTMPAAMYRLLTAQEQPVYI
Sequence of Large T antigen (P03070 whole entry): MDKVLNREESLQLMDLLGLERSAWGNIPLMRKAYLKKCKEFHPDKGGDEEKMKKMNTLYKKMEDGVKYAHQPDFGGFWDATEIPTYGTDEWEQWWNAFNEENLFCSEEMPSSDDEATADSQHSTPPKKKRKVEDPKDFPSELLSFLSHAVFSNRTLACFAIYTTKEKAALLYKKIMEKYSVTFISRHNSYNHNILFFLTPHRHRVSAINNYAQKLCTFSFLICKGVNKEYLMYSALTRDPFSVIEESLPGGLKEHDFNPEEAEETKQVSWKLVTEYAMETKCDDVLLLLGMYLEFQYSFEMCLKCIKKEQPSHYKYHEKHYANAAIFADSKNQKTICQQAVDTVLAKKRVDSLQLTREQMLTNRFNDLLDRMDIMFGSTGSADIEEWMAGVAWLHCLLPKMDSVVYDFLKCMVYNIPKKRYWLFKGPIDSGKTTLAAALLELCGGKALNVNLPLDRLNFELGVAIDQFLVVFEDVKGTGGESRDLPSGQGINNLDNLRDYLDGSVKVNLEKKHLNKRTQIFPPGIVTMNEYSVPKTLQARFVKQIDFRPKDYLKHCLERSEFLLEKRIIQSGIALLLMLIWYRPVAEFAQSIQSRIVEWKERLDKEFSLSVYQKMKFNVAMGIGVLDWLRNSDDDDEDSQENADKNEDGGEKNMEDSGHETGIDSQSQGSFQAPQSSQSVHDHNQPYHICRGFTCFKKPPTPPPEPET
Sequence of Induced myeloid leukemia cell differentiation protein Mcl-1 (Q07820 whole entry): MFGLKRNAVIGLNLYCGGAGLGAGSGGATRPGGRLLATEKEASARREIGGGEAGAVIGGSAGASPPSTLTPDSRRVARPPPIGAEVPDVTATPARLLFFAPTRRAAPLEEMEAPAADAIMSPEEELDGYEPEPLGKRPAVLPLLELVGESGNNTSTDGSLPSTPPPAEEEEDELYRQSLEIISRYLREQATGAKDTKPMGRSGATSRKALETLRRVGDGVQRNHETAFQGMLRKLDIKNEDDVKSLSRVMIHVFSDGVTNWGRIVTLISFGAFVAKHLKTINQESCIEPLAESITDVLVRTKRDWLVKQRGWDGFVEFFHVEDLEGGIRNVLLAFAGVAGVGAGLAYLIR

CCN(CC)S(=O)(=O)c1cc(NC(=O)CNc2cccc(S(=O)(=O)N3CCCC3)c2)ccc1C
AC50 [1]: > 70 µM (inactive) | IC50 [2]: > 80 µM (inactive) | AC50 [3]: 0.648 µM (active) | AC50 [4]: 1.2 µM (active) | AC50 (INS1): 5.23 µM (active)

CC(C)c1ccc(OCC(=O)NNC(=O)c2cnccn2)cc1
IC50 (cells [5]): 11.9 µM (active)

O=C(N/N=C/C=C/c1ccccc1)c1ccncc1
IC50 (cells [5]): 0.48 µM (active)

COc1ccc(NC(=O)C2C3CCC(C3)C2C(=O)O)cc1OC (centres undefined)
Ki (fMet-Leu-Phe receptor): > 66.7 µM (inactive)

C/C=C/c1ccc2c(c1)[C@@H]1[C@@H](CCN1S(=O)(=O)c1ccccc1C)[C@H](CO)N2
AC50 [6]: 7.49 µM (active)

COc1ccc(/C=C(\NC(=O)c2ccc([N+](=O)[O-])cc2)C(=O)NCCN2CCOCC2)cc1
IC50 (Fatty acid synthase): 5.27 µM (active)

COc1ccc(C)cc1NC1=NC(C)(C)CS1
EC50 [7]: 7.5 µM (active)

Cc1cccc(-n2cnc3c(c2=O)c2nc4ccccc4nc2n3Cc2ccco2)c1
IC50 [8]: 2.16 µM (active) | IC50 [9]: 0.871 µM (active)

Cc1cc(O)c(C=O)c2c1C(=O)Oc1c(CO)c(O)c3c(c1O2)C(O)OC3=O (centres undefined) [SLAZINIC ACID]
IC50 (Large T antigen): 17.5 µM (active) | IC50 [8]: 14.8 µM (active) | IC50 [9]: 12.5 µM (active)

COCC(=O)N1CC2(C1)CN(Cc1ccccc1F)[C@H](CO)c1[nH]c3cc(OC)ccc3c12
AC50 [6]: 11.5 µM (active)

Cc1cc(C(=O)N/N=C/c2cc(N=Nc3ccccc3)ccc2O)[nH]n1
IC50 [10]: 2.22 µM (active) | EC50 (cells [11]): 11.5 µM (active) | EC50 [12]: 2.04 µM (active) | EC50 [13]: 13 µM (active) | EC50 (cells [14]): 27.9 µM (active) | EC50 [15]: 10.7 µM (active) | IC50 [8]: 10.9 µM (active) | IC50 [9]: > 50 µM (inactive) | EC50 [16]: 9.08 µM (active) | EC50 (Streptococcus): 1.92 µM (active) | AC50 (INS1): 1.22 µM (active)

CN1CCN(CCCNC(=O)Nc2cccc3ccccc23)CC1
Ki (fMet-Leu-Phe receptor): > 66.7 µM (inactive)

CCOC(=O)c1oc2cc(O)ccc2c(=O)c1-c1ccccc1OC
Ki (fMet-Leu-Phe receptor): > 66.7 µM (inactive)

CC12CN3CC(C)(CN(C1)C3c1ccc(Cl)cc1Cl)C2O (centres undefined)
EC50 [7]: 4.22 µM (active)

COc1ccc2cc3cc(C(=O)N4CC(C)CC(C)C4)oc3nc2c1 (centres undefined)
IC50 (Fatty acid synthase): 3.88 µM (active)

O=C(c1ccc(Cl)cc1)N(Cc1cccs1)C1CCS(=O)(=O)C1 (centres undefined)
Ki (fMet-Leu-Phe receptor): > 66.7 µM (inactive)

O=C(N/N=C/c1ccncc1)c1ccc(NC(=O)c2ccc(Cl)cc2)cc1
IC50 [8]: > 56.8 µM (not active) | IC50 [9]: > 50 µM (inactive)

C[C@H](CO)N1C[C@H](C)[C@H](CN(C)Cc2ccc(C(=O)Nc3ccccc3N)cc2)Oc2ccc(NC(=O)C3CCCCC3)cc2CC1=O
AC50 [17]: 3.41 µM (active)

CC(C)NC(=O)Nc1ccc2c(c1)CC(=O)N([C@H](C)CO)C[C@H](C)[C@H](CN(C)Cc1ccc(C(=O)Nc3ccccc3N)cc1)O2
AC50 [17]: 4 µM (active)

C[C@H](CO)N1C[C@H](C)[C@H](CN(C)Cc2ccc(C(=O)Nc3ccccc3N)cc2)Oc2c(NC(=O)Nc3ccc4c(c3)OCO4)cccc2C1=O
AC50 [17]: 5.97 µM (active)

CN(C)c1nc(N(C)C)nc(N(C)C)n1 [ALTRETAMINE]
GI50 (P388): > 106 µM (inactive) | Ki (fMet-Leu-Phe receptor): > 66.7 µM (inactive) | GI50 (SN12K1): > 150 µM (inactive) | GI50 (P388/ADR): > 136 µM (inactive)

COc1ccc(-c2cc(C(F)(F)F)nc(N3CCN(c4ccccc4)CC3)n2)cc1OC
Ki (fMet-Leu-Phe receptor): > 66.7 µM (inactive)

C[C@H]1CN([C@@H](C)CO)C(=O)c2cc(NC(=O)Nc3ccc4c(c3)OCO4)ccc2O[C@@H]1CN(C)Cc1ccc(Oc2ccccc2)cc1
AC50 [17]: 4.01 µM (active)

COc1ccc(C#Cc2cccc(-c3nc(C(=O)N[C@@H]4CCN(Cc5ccccc5)C4)cc4c3[C@H](CCO)N([S+]([O-])C(C)(C)C)C4)c2)cc1OC (some centres undefined)
AC50 [6]: 4.45 µM (active)

C[C@H]1CN([C@@H](C)CO)C(=O)c2cccc(NC(=O)Nc3ccccc3)c2O[C@@H]1CN(C)Cc1ccc(C(=O)Nc2ccccc2N)cc1
AC50 [17]: 1.54 µM (active)

N#CC1=C(N)N=C(S)C(C(N)=O)C1c1ccc(Cl)cc1Cl (centres undefined)
IC50 [8]: 13.3 µM (active) | IC50 [9]: > 50 µM (inactive)

CCOC(=O)Cc1cc(O)n2nc(C)c(-c3ccc(OC)cc3)c2n1
Ki (fMet-Leu-Phe receptor): 18.3 µM (inactive)

C[C@@H]1CN([C@@H](C)CO)S(=O)(=O)c2ccc(C#Cc3ccncc3)cc2O[C@H]1CN(C)S(=O)(=O)c1ccc(F)cc1
AC50 [6]: 2.95 µM (active)

CCCS(=O)(=O)N1CCCC(C(=O)N2CCC(Cc3ccccc3)CC2)C1 (centres undefined)
Ki (fMet-Leu-Phe receptor): > 66.7 µM (inactive) | EC50 [18]: > 195 µM (not active)

C[C@H](CO)N1C[C@H](C)[C@H](CN(C)Cc2ccc3c(c2)OCO3)Oc2ccc(NC(=O)NC3CCCCC3)cc2C1=O
AC50 [17]: 1.82 µM (active)

C[C@@H]1CN([C@@H](C)CO)C(=O)c2cccc(NC(=O)NC3CCCCC3)c2O[C@H]1CN(C)Cc1ccc(C(F)(F)F)cc1
AC50 [17]: 2.86 µM (active)
